Assays:
PC3 cells = test: NAMPT Cell Proliferation Assay (Cell Titer Glo); format: cell-based; details: Homo sapiens, PC-3, 120 h, incubated 5 days, cell viability
Summary of the method: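 PC3 cells (500/well, RPMI with 10% heat-inactivated FBS) were exposed to 10-fold compound dilutions from […] for 5 days at 37 °C, 5% CO2. Viability was read with Cell Titer Glo; IC50 from sigmoidal fit of percent inhibition.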

NAMPT [1] = target: T1, NAMPT (Homo sapiens, UniProt P43490); test: Time-Resolved Fluorescence Resonance Energy Transfer (TR-FRET) Binding Assay of NAMPT; details: 6.8 nM NAMPT, 200 nM probe, equilibrated 3 hours, no substrates
Summary of the method: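 Compound was mixed with enzyme, probe and antibody and equilibrated 3 h at room temperature. TR-FRET read at Ex 337 nm, Em 520/495 nm. Ratios were normalized to controls and fitted to a four-parameter logistic equation for IC50.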

NAMPT [2] = target: T1, NAMPT; test: TR-FRET Binding Assay of NAMPT with PRPP; details: 2 nM NAMPT, 2 nM probe, 200 µM PRPP and 2.5 mM ATP, equilibrated 16 hours
Summary of the method: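 TR-FRET probe displacement with 2 nM NAMPT, 2 nM probe and 1 nM Tb-anti-His antibody in the presence of 200 µM PRPP and 2.5 mM ATP, 2% DMSO (all final). Equilibrated 16 hours before reading to permit possible enzymatic modification of compounds.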

T1 sequence (P43490 whole entry): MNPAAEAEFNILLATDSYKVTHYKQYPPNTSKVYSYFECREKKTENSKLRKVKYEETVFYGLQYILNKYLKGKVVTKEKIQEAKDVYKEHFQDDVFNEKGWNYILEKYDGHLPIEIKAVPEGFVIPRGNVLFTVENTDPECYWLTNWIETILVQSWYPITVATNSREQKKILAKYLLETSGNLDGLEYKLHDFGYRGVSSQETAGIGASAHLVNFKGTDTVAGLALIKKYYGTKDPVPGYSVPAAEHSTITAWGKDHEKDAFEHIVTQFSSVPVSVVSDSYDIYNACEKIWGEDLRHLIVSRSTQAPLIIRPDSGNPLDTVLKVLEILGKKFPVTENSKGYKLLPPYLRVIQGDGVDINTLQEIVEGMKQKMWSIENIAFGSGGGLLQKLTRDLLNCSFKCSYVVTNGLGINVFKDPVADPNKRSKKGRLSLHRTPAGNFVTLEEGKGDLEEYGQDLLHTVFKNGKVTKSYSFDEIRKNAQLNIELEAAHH

Row | SMILES | IC50 (PC3 cells) | IC50 (NAMPT [1]) | IC50 (NAMPT [2])
1 | CCC(CC)CN1CC(c2ccc(NC(=O)N3CC(c4cccnc4)C3)cc2)C1 [Example 253, N-{4-[1-(2-ethylbutyl)azetidin-3-yl]phenyl}-3-(pyridin-3-yl)azetidine-1-carboxamide] | 622 nM | 538 nM | 0.207 nM
2 | CCC(C)CN1CC(c2ccc(NC(=O)N3CC(c4cccnc4)C3)cc2)C1 (stereo not drawn) [Example 255, N-{4-[1-(2-methylbutyl)azetidin-3-yl]phenyl}-3-(pyridin-3-yl)azetidine-1-carboxamide] | 734 nM | 271 nM | 0.173 nM
3 | CCCCC(=O)N1CCC(c2ccc(NC(=O)N3CC(c4cccnc4)C3)cc2)C1 (stereo not drawn) [Example 258, N-[4-(1-pentanoylpyrrolidin-3-yl)phenyl]-3-(pyridin-3-yl)azetidine-1-carboxamide] | 68.3 nM | 52.4 nM | 0.359 nM
4 | CCC(C)CC(=O)N1CCC(c2ccc(NC(=O)N3CC(c4cccnc4)C3)cc2)C1 (stereo not drawn) [Example 259, N-{4-[1-(3-methylpentanoyl)pyrrolidin-3-yl]phenyl}-3-(pyridin-3-yl)azetidine-1-carboxamide] | 64.7 nM | 54.5 nM | 0.452 nM
5 | O=C(CC1C[C@@H]2CC[C@H]1C2)N1CCC(c2ccc(NC(=O)N3CC(c4cccnc4)C3)cc2)C1 (stereo partly drawn) [Example 260, N-(4-{1-[(1S,4R)-bicyclo[2.2.1]hept-2-ylacetyl]pyrrolidin-3-yl}phenyl)-3-(pyridin-3-yl)azetidine-1-carboxamide] | 94.9 nM | 38.4 nM | 0.302 nM
6 | O=C(CC1CCCC1)N1CCC(c2ccc(NC(=O)N3CC(c4cccnc4)C3)cc2)C1 (stereo not drawn) [Example 261, N-{4-[1-(cyclopentylacetyl)pyrrolidin-3-yl]phenyl}-3-(pyridin-3-yl)azetidine-1-carboxamide] | 71.3 nM | 33.5 nM | 0.194 nM
7 | CC1CC1C(=O)N1CCC(c2ccc(NC(=O)N3CC(c4cccnc4)C3)cc2)C1 (stereo not drawn) [Example 262, N-(4-{1-[(2-methylcyclopropyl)carbonyl]pyrrolidin-3-yl}phenyl)-3-(pyridin-3-yl)azetidine-1-carboxamide] | 51.6 nM | 60.4 nM | 0.252 nM
8 | O=C(CN1CCOCC1)N1CCC(c2ccc(NC(=O)N3CC(c4cccnc4)C3)cc2)C1 (stereo not drawn) [Example 263, N-{4-[1-(morpholin-4-ylacetyl)pyrrolidin-3-yl]phenyl}-3-(pyridin-3-yl)azetidine-1-carboxamide] | 365 nM | 143 nM | 0.239 nM
9 | O=C(Nc1ccc(C2CCN(C(=O)c3ccoc3)C2)cc1)N1CC(c2cccnc2)C1 (stereo not drawn) [Example 264, N-{4-[1-(furan-3-ylcarbonyl)pyrrolidin-3-yl]phenyl}-3-(pyridin-3-yl)azetidine-1-carboxamide] | 35.1 nM | 40.9 nM | 0.188 nM
10 | O=C(Nc1ccc(C2CCN(C(=O)c3nccs3)C2)cc1)N1CC(c2cccnc2)C1 (stereo not drawn) [Example 267, 3-(pyridin-3-yl)-N-{4-[1-(1,3-thiazol-2-ylcarbonyl)pyrrolidin-3-yl]phenyl}azetidine-1-carboxamide] | 17.8 nM | 22.5 nM | 0.297 nM
11 | O=C(Nc1ccc(C2CCN(C(=O)c3ccsc3)C2)cc1)N1CC(c2cccnc2)C1 (stereo not drawn) [Example 268, 3-(pyridin-3-yl)-N-{4-[1-(thiophen-3-ylcarbonyl)pyrrolidin-3-yl]phenyl}azetidine-1-carboxamide] | 22.8 nM | 36.5 nM | 0.225 nM
12 | Cc1ccsc1C(=O)N1CCC(c2ccc(NC(=O)N3CC(c4cccnc4)C3)cc2)C1 (stereo not drawn) [Example 270, N-(4-{1-[(3-methylthiophen-2-yl)carbonyl]pyrrolidin-3-yl}phenyl)-3-(pyridin-3-yl)azetidine-1-carboxamide] | 19.5 nM | 8.17 nM | 0.196 nM
13 | O=C(CCC(F)(F)F)N1CCC(c2ccc(NC(=O)N3CC(c4cccnc4)C3)cc2)C1 (stereo not drawn) [Example 271, 3-(pyridin-3-yl)-N-{4-[1-(4,4,4-trifluorobutanoyl)pyrrolidin-3-yl]phenyl}azetidine-1-carboxamide] | 60.4 nM | 46.9 nM | 0.279 nM
14 | CN1CCN(CC(=O)N2CCC(c3ccc(NC(=O)N4CC(c5cccnc5)C4)cc3)C2)CC1 (stereo not drawn) [Example 272, N-(4-{1-[(4-methylpiperazin-1-yl)acetyl]pyrrolidin-3-yl}phenyl)-3-(pyridin-3-yl)azetidine-1-carboxamide] | 222 nM | 90.7 nM | 0.241 nM
15 | CCOCCC(=O)N1CCC(c2ccc(NC(=O)N3CC(c4cccnc4)C3)cc2)C1 (stereo not drawn) [Example 274, N-{4-[1-(3-ethoxypropanoyl)pyrrolidin-3-yl]phenyl}-3-(pyridin-3-yl)azetidine-1-carboxamide] | 68.5 nM | 82.2 nM | 0.264 nM
16 | CC(C)CCC(=O)N1CCC(c2ccc(NC(=O)N3CC(c4cccnc4)C3)cc2)C1 (stereo not drawn) [Example 275, N-{4-[1-(4-methylpentanoyl)pyrrolidin-3-yl]phenyl}-3-(pyridin-3-yl)azetidine-1-carboxamide] | 34.5 nM | 38.3 nM | 0.363 nM
17 | CC1(C(=O)N2CCC(c3ccc(NC(=O)N4CC(c5cccnc5)C4)cc3)C2)CCCCC1 (stereo not drawn) [Example 276, N-(4-{1-[(1-methylcyclohexyl)carbonyl]pyrrolidin-3-yl}phenyl)-3-(pyridin-3-yl)azetidine-1-carboxamide] | 10 nM | 12.4 nM | 0.347 nM
18 | O=C(CC1CCCCC1)N1CCC(c2ccc(NC(=O)N3CC(c4cccnc4)C3)cc2)C1 (stereo not drawn) [Example 278, N-{4-[1-(cyclohexylacetyl)pyrrolidin-3-yl]phenyl}-3-(pyridin-3-yl)azetidine-1-carboxamide] | 30.6 nM | 19.7 nM | 0.213 nM
19 | CCC(=O)N1CCC(c2ccc(NC(=O)N3CC(c4cccnc4)C3)cc2)C1 (stereo not drawn) [Example 279, N-[4-(1-propanoylpyrrolidin-3-yl)phenyl]-3-(pyridin-3-yl)azetidine-1-carboxamide] | 47.6 nM | 92.1 nM | 0.204 nM
20 | CC(C)(C)C(=O)N1CCC(c2ccc(NC(=O)N3CC(c4cccnc4)C3)cc2)C1 (stereo not drawn) [Example 282, N-{4-[1-(2,2-dimethylpropanoyl)pyrrolidin-3-yl]phenyl}-3-(pyridin-3-yl)azetidine-1-carboxamide] | 14.3 nM | 26.6 nM | 0.219 nM
21 | Cc1ccc(C(=O)N2CCC(c3ccc(NC(=O)N4CC(c5cccnc5)C4)cc3)C2)s1 (stereo not drawn) [Example 283, N-(4-{1-[(5-methylthiophen-2-yl)carbonyl]pyrrolidin-3-yl}phenyl)-3-(pyridin-3-yl)azetidine-1-carboxamide] | 61.7 nM | 33.7 nM | 0.266 nM
22 | O=C(Nc1ccc(C2CCN(C(=O)c3cccs3)C2)cc1)N1CC(c2cccnc2)C1 (stereo not drawn) [Example 284, 3-(pyridin-3-yl)-N-{4-[1-(thiophen-2-ylcarbonyl)pyrrolidin-3-yl]phenyl}azetidine-1-carboxamide] | 22.3 nM | 18.3 nM | 0.204 nM
23 | O=C(CCN1CCCCC1)N1CCC(c2ccc(NC(=O)N3CC(c4cccnc4)C3)cc2)C1 (stereo not drawn) [Example 287, N-(4-{1-[3-(piperidin-1-yl)propanoyl]pyrrolidin-3-yl}phenyl)-3-(pyridin-3-yl)azetidine-1-carboxamide] | 37.4 nM | 30.1 nM | 0.189 nM
24 | CCOCC(=O)N1CCC(c2ccc(NC(=O)N3CC(c4cccnc4)C3)cc2)C1 (stereo not drawn) [Example 288, N-{4-[1-(ethoxyacetyl)pyrrolidin-3-yl]phenyl}-3-(pyridin-3-yl)azetidine-1-carboxamide] | 84 nM | 117 nM | 0.227 nM
25 | CC(C)(C)CC(=O)N1CCC(c2ccc(NC(=O)N3CC(c4cccnc4)C3)cc2)C1 (stereo not drawn) [Example 289, N-{4-[1-(3,3-dimethylbutanoyl)pyrrolidin-3-yl]phenyl}-3-(pyridin-3-yl)azetidine-1-carboxamide] | 35.2 nM | 29.6 nM | 0.204 nM
26 | CCC(C)(C)C(=O)N1CCC(c2ccc(NC(=O)N3CC(c4cccnc4)C3)cc2)C1 (stereo not drawn) [Example 290, N-{4-[1-(2,2-dimethylbutanoyl)pyrrolidin-3-yl]phenyl}-3-(pyridin-3-yl)azetidine-1-carboxamide] | 10.3 nM | 11.1 nM | 0.224 nM
27 | CC(=O)C(=O)N1CCC(c2ccc(NC(=O)N3CC(c4cccnc4)C3)cc2)C1 (stereo not drawn) [Example 291, N-{4-[1-(2-oxopropanoyl)pyrrolidin-3-yl]phenyl}-3-(pyridin-3-yl)azetidine-1-carboxamide] | 150 nM | 25.8 nM | 0.207 nM
28 | COCC(=O)N1CCC(c2ccc(NC(=O)N3CC(c4cccnc4)C3)cc2)C1 (stereo not drawn) [Example 292, N-{4-[1-(methoxyacetyl)pyrrolidin-3-yl]phenyl}-3-(pyridin-3-yl)azetidine-1-carboxamide] | 87.8 nM | 268 nM | 0.259 nM
29 | O=C(Nc1ccc(C2CCN(C(=O)C3CCCCC3)C2)cc1)N1CC(c2cccnc2)C1 (stereo not drawn) [Example 293, N-{4-[1-(cyclohexylcarbonyl)pyrrolidin-3-yl]phenyl}-3-(pyridin-3-yl)azetidine-1-carboxamide] | 70.5 nM | 56.6 nM | 0.21 nM

From patent US9296723B2, “NAMPT inhibitors” (AbbVie Inc., priority 2012, dated 2016)
